In ChEMBL document CHEMBL1201862, “PubChem BioAssay data set” (2004):
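Results reflect a 48-hour exposure of cells in 96-well plates to compound at five concentrations. The concentration for 50% growth inhibition is given as GI50.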 Activity calls are given as the source filed them. Rule as the data show it: active = GI50 up to about 1.1 µM and inactive = higher.

Key:
Assay in all cases: growth of human tumour cells (NCI), 48 h
[1] = test system: RXF 393
[2] = test system: IGROV-1
[3] = test system: SK-MEL-2
[4] = test system: OVCAR-5
[5] = test system: KM12
[6] = test system: HCT-116
[7] = test system: SK-MEL-5
[8] = test system: DU-145
[9] = test system: U-251
[10] = test system: NCI/ADR-RES
[11] = test system: UO-31
[12] = test system: COLO 205
[13] = test system: NCI-H460
[14] = test system: OVCAR-3
[15] = test system: MDA-MB-231
[16] = test system: MOLT-4
[17] = test system: NCI-H23
[18] = test system: SF-268

Measured: GI50

O=C1c2ccccc2CCC1C(O)(C(F)(F)F)C(F)(F)F (configuration not stated)
inactive: [1] 93.8 µM | [2] > 100 µM | [3] 27.5 µM | [4] > 100 µM | [5] > 100 µM | [6] > 100 µM | [7] 49.2 µM | [8] > 100 µM | [9] > 100 µM | [10] > 100 µM | [11] > 100 µM | [12] > 100 µM | [13] > 100 µM | [14] > 100 µM | [15] > 100 µM | [16] 44.6 µM | [17] > 100 µM

C/C(=C\c1ccccc1)C(=O)NCc1ccc(C(=O)NCCc2ccccc2)cc1
inactive: [1] 13.8 µM | [2] 35.8 µM | [3] 20.9 µM | [4] > 96.2 µM | [5] > 100 µM | [6] 43.4 µM | [7] > 100 µM | [8] > 100 µM | [9] > 51.8 µM | [10] > 39.9 µM | [11] 22 µM | [12] > 100 µM | [13] > 100 µM | [14] > 100 µM | [15] > 43.2 µM | [18] 4.37 µM | [16] > 100 µM | [17] > 52.4 µM

Cc1nc2sc(CCl)nn2c(=O)c1Cl
inactive: [1] 4.57 µM | [2] 15 µM | [3] 11.1 µM | [4] 15.1 µM | [5] 11.9 µM | [6] 13.4 µM | [7] 5.07 µM | [8] 16.1 µM | [9] 6.08 µM | [10] 18.8 µM | [11] 14.2 µM | [12] 16.7 µM | [13] 10.6 µM | [14] 15.9 µM | [15] 20.5 µM | [18] 14.2 µM | [16] 6.03 µM | [17] 17.4 µM

CC1(C)CCC[C@@]2(C)C1CC[C@@]1(CO1)[C@@H]2/C=C\C(C=O)CC=O (some centres not stated)
inactive: [1] 99.8 µM | [2] > 100 µM | [3] > 100 µM | [4] > 100 µM | [5] > 67.9 µM | [6] 62.2 µM | [7] > 100 µM | [8] > 100 µM | [9] > 96.6 µM | [10] > 100 µM | [11] > 94.8 µM | [12] > 91.8 µM | [13] > 100 µM | [14] > 100 µM | [15] > 100 µM | [18] > 100 µM | [16] 21.5 µM | [17] > 100 µM

C#CCNC(Cc1c[nH]cn1)C(=O)O (configuration not stated)
inactive: [1] > 100 µM | [2] > 100 µM | [3] > 100 µM | [4] > 100 µM | [5] > 100 µM | [6] > 100 µM | [7] > 100 µM | [8] > 100 µM | [9] > 100 µM | [10] > 100 µM | [11] > 100 µM | [12] > 100 µM | [13] > 100 µM | [14] > 100 µM | [15] > 100 µM | [18] > 100 µM | [16] > 100 µM

OC1NC2Nc3ccccc3NC2NC1O (configuration not stated)
inactive: [1] > 100 µM | [2] > 100 µM | [3] > 100 µM | [4] > 100 µM | [5] > 100 µM | [6] > 100 µM | [7] > 100 µM | [8] > 100 µM | [9] > 100 µM | [10] > 100 µM | [12] > 100 µM | [13] > 100 µM | [14] > 100 µM | [15] > 100 µM | [18] > 100 µM | [16] > 100 µM | [17] > 100 µM

CCNc1ncnc2sc(SCc3ccccc3)nc12
inactive: [1] > 100 µM | [2] > 100 µM | [3] > 100 µM | [4] > 100 µM | [5] 48.4 µM | [6] 85.9 µM | [7] 25.6 µM | [8] 75.7 µM | [9] > 100 µM | [10] 34.8 µM | [11] 36.8 µM | [12] 36.1 µM | [13] 46.2 µM | [14] > 100 µM | [15] > 100 µM | [18] > 100 µM | [16] 25.9 µM | [17] 83.8 µM

O=C(CNC(=O)OCc1ccccc1)NCCCCC(NC(=O)OCc1ccccc1)C(=O)O (configuration not stated)
inactive: [1] > 100 µM | [2] > 100 µM | [3] > 100 µM | [4] > 100 µM | [5] > 100 µM | [6] > 100 µM | [7] > 100 µM | [8] > 100 µM | [9] > 100 µM | [10] > 100 µM | [11] > 100 µM | [12] > 100 µM | [13] > 100 µM | [14] > 100 µM | [15] > 100 µM | [18] > 100 µM | [16] > 100 µM | [17] > 100 µM

COCCCNc1c2ccccc2nc2ccccc12
inactive: [1] 3.35 µM | [2] 3.56 µM | [3] 2.17 µM | [4] 2.17 µM | [5] 4.39 µM | [6] 2.59 µM | [7] 2.14 µM | [8] 2.52 µM | [10] 3.82 µM | [11] 2.05 µM | [12] 2.11 µM | [13] 1.54 µM | [14] 2.47 µM | [15] 3.25 µM | [18] 3.75 µM | [16] 3.57 µM | [17] 2.92 µM

Fc1c(F)c(C(F)(F)F)c(F)c(F)c1N/N=C\c1c[nH]c2ccccc12
inactive: [1] 2 µM | [2] 1.26 µM | [3] 2.78 µM | [4] 3.94 µM | [5] 1.94 µM | [6] 3.73 µM | [7] 1.82 µM | [8] 3.64 µM | [9] 3.23 µM | [10] 2.13 µM | [11] 1.16 µM | [12] 1.28 µM | [13] 1.86 µM | [14] 1.87 µM | [15] 3.03 µM | [18] 5.24 µM | [16] 2.19 µM | [17] 3.95 µM

O=C1C/C(=C\c2ccccc2)C(=O)c2ccccc2N1
inactive: [1] 19.6 µM | [2] 18.6 µM | [3] 28.5 µM | [4] 20 µM | [5] 22.6 µM | [6] 14.7 µM | [7] 20.3 µM | [8] 32.5 µM | [10] 23.6 µM | [12] 20 µM | [13] 29.3 µM | [14] 25 µM | [15] 23.8 µM | [18] 38.2 µM | [16] 45.5 µM | [17] 24.7 µM

C=C(C(=O)O)[C@@H]1C[C@@H](OC(C)=O)[C@]2(C)CC/C=C(\C)CCC[C@H](C)[C@H](O)[C@@H]1O2
inactive: [1] 18.5 µM | [2] 36.8 µM | [3] 71.8 µM | [4] > 100 µM | [5] 41.9 µM | [6] 52.8 µM | [7] 30.2 µM | [8] 83.9 µM | [9] > 100 µM | [10] 33.3 µM | [12] 33.1 µM | [13] 66.4 µM | [14] 37.4 µM | [15] > 100 µM | [18] > 100 µM | [16] 24.7 µM

Cc1cc2nc(N3C(=O)/C(=C/Cc4ccco4)N=C3c3ccccc3)sc2cc1C
inactive: [1] 13.6 µM | [2] 21.3 µM | [3] 26.8 µM | [4] 24.9 µM | [5] 25.9 µM | [6] 17 µM | [7] 22.3 µM | [8] 61.9 µM | [9] 29 µM | [10] 27.6 µM | [11] 26.6 µM | [12] 28 µM | [13] 23.6 µM | [14] 22.3 µM | [15] 51.5 µM | [18] 40.4 µM | [16] 20.3 µM

O=C1/C(=C\c2ccc(Cl)cc2Cl)Sc2scc(-c3ccc(O)c(O)c3)[n+]21
inactive: [1] 12.4 µM | [2] 21.2 µM | [3] 11.5 µM | [4] 16.4 µM | [5] 15.1 µM | [6] 14.5 µM | [7] 7.98 µM | [8] 18.3 µM | [9] 11.9 µM | [10] 15.1 µM | [11] 13 µM | [12] 19 µM | [13] 16 µM | [14] 6.47 µM | [15] 16.5 µM | [18] 30.3 µM | [16] 9.64 µM | [17] 11.6 µM

CC(C)(C)c1c(C(C)(C)C)c(=O)c1=O
inactive: [1] > 100 µM | [3] > 100 µM | [4] > 100 µM | [5] > 100 µM | [6] > 100 µM | [7] > 100 µM | [8] > 100 µM | [9] > 100 µM | [10] > 100 µM | [11] > 100 µM | [12] > 100 µM | [13] > 100 µM | [14] > 100 µM | [15] > 100 µM | [18] > 100 µM | [16] > 100 µM | [17] > 100 µM

COc1ccc(-c2cc(=O)c3ccc(O)cc3o2)cc1OC
inactive: [1] 5.85 µM | [2] 32.9 µM | [3] > 100 µM | [4] > 100 µM | [5] 59.3 µM | [6] 30.2 µM | [7] 15.2 µM | [8] 48 µM | [9] 43.9 µM | [10] 34.9 µM | [12] 68.4 µM | [13] 25.5 µM | [14] 57.3 µM | [15] 77.4 µM | [18] > 100 µM | [16] 25.6 µM | [17] 52.1 µM
